Reference: the supplement of paper PMC13380429

Key:
Settings in all cases: 72 h
Caco-2 [1] = assay: relative viability EC50 (midpoint between 100% and the lowest measured viability); higher = less toxic
U2OS [2] = assay: as above
Vero E6 [3] = assay: as above
HepG2 [4] = assay: as above
Calu-3 [5] = assay: as above
Caco-2 [6] = assay: drug sensitivity score (DSS) for viability; higher = more toxic; extreme values may be limits of the assay
U2OS [7] = assay: as above
Vero E6 [8] = assay: as above
HepG2 [9] = assay: as above
Calu-3 [10] = assay: as above
Caco-2 [11] = assay: cell viability relative to DMSO; higher = less toxic
U2OS [12] = assay: as above
Vero E6 [13] = assay: as above
HepG2 [14] = assay: as above
Calu-3 [15] = assay: as above

Compound	relative viability EC50 (Caco-2 [1]) [µM]	relative viability EC50 (U2OS [2]) [µM]	relative viability EC50 (Vero E6 [3]) [µM]	relative viability EC50 (HepG2 [4]) [µM]	relative viability EC50 (Calu-3 [5]) [µM]	drug sensitivity score (Caco-2 [6])	drug sensitivity score (U2OS [7])	drug sensitivity score (Vero E6 [8])	drug sensitivity score (HepG2 [9])	drug sensitivity score (Calu-3 [10])	cell viability (Caco-2 [11]; 1 nM) [%]	cell viability (Caco-2 [11]; 10 nM) [%]	cell viability (Caco-2 [11]; 100 nM) [%]	cell viability (Caco-2 [11]; 1000 nM) [%]	cell viability (Caco-2 [11]; 10000 nM) [%]	cell viability (U2OS [12]; 1 nM) [%]	cell viability (U2OS [12]; 10 nM) [%]	cell viability (U2OS [12]; 100 nM) [%]	cell viability (U2OS [12]; 1000 nM) [%]	cell viability (U2OS [12]; 10000 nM) [%]	cell viability (Vero E6 [13]; 1 nM) [%]	cell viability (Vero E6 [13]; 10 nM) [%]	cell viability (Vero E6 [13]; 100 nM) [%]	cell viability (Vero E6 [13]; 1000 nM) [%]	cell viability (Vero E6 [13]; 10000 nM) [%]	cell viability (HepG2 [14]; 1 nM) [%]	cell viability (HepG2 [14]; 10 nM) [%]	cell viability (HepG2 [14]; 100 nM) [%]	cell viability (HepG2 [14]; 1000 nM) [%]	cell viability (HepG2 [14]; 10000 nM) [%]	cell viability (Calu-3 [15]; 1 nM) [%]	cell viability (Calu-3 [15]; 10 nM) [%]	cell viability (Calu-3 [15]; 100 nM) [%]	cell viability (Calu-3 [15]; 1000 nM) [%]	cell viability (Calu-3 [15]; 10000 nM) [%]
CCOC(=O)Nc1ccc2c(c1)N(C(=O)CN(C)C)c1ccccc1CC2 [tiracizine]	> 10	> 10	> 10	> 10	> 10	0	0	0	0	0	106	105	105	98.9	100	99.9	104	96.5	101	99.7	99.8	99.2	97.3	97.9	97.8	106	95.4	111	87.6	102	107	103	87	85	106
OCc1cc([C@@H](O)CNCCCCCCOCCOCc2c(Cl)cccc2Cl)ccc1O [vilanterol]	> 10	> 10	> 10	> 10	> 10	0	0	0	0	0	94	93.5	96	96.2	94.3	96.8	96.1	101	100	94	95.3	99.7	89.2	98.9	107	97.8	96.5	89.5	104	109	99	100	89.8	102	97
C=CCN1CCCC1CNC(=O)c1cc2nn[nH]c2cc1OC (stereo not given) [alizapride]	> 10	> 10	> 10	> 10	> 10	0	0	0	0	0	94.7	104	90.1	98	107	97.6	99.9	94.5	106	100	92.9	97.3	94.9	91.4	105	108	94.2	104	88.8	103	89.9	91.4	86.2	101	112
Cc1cc(NC(=O)Nc2ccc(F)c(F)c2)n(-c2ccccc2)n1 [ML297]	> 10	> 10	> 10	> 10	> 10	0	0	0	0	0	96.9	97	95.9	108	99.2	97.1	101	101	103	98.2	104	99.5	98.2	102	99.5	105	90.5	108	91.6	98.1	103	98.5	105	97.4	98.7
